Assay results as given in patent US20170150715A1, “METHODS OF ELIMINATING SPORES” (Lifeclean International AB, priority 2013, published 2017).
Marks after values point to notes of the source that are not given here.

What was measured:
[1] = system: spore suspension Ribotype 25; assay: Elimination of spores on glass surfaces, different concentrations of surfactants (Example 8); type: cell-based, Clostridium difficile; conditions: glass surface, application time 2 minutes
Description: Example 9 outlines a test with chlorine dioxide solutions of 800 and 1600 ppm having different concentration of surfactants made in accordance with Example 2A. A spore suspension was generated and counted in accordance with Example 4:
Ribotype 25; 8.0×10^8 spores/mL (8.0×10^7 spores on the glass surface) approximately 80% spores in the suspension.
(§1) The glass surfaces were prepared by transferring 0.1 ml of the spore solution to microscopy slides. After the suspension has dried, 0.2 ml of the test solutions were added to the slides for an application time of 2 minutes. Subsequently, the glass surfaces were each placed in a 500 ml glass flask with 250 ml 0.85% NaCl solution and rotated at 200 rpm for 20 minutes.
After rotation, the contents of the flasks were treated and cultured with procedures and agar plates in accordance with Example 4.

[2] = system: spore suspension Ribotype 25; assay: Elimination of spores on glass surfaces, different contact times (Example 7); type: cell-based, Clostridium difficile; conditions: glass surface, contact time 10 min
Description: Example 7 outlines a test with different contact for chlorine dioxide solution according to the invention. A spore suspension was generated and counted in accordance with Example 4:
Ribotype 25; 9.6×10^8 spores/mL (9.6×10^7 spores on the glass surface) approximately 80% spores in the suspension.
as §1, with “for” for “for an”, “times between 1 and 10” for “time of 2”
The test solution comprising chlorine dioxide was prepared in accordance with Example 2B, comprising 1600 ppm chlorine dioxide together with 0.2% (v/v) cationic surfactant comprising equal amounts of octyl dimethylamine oxide and lauryl dimethylamine oxide). After rotation, the contents of the flasks were treated and cultured with procedures and agar plates in accordance with Example 4.

[3] = system: spores of C Difficile, Ribotype 25; assay: Elimination of spores of C Difficile on glass surfaces, types and combinations of surface active agents (Example 6); type: cell-based, Clostridium difficile
Description: Example 6 was designed in order to evaluate different types and combinations of surface active agents in combination with chlorine oxide for elimination of spores of C Difficile on surfaces. The following test solutions were used:
The solutions were prepared in accordance with Examples 2, 2A and 3. RD1 and RD2 signify the anionic surfactants of Example 3 branded DOWFAX 3B2 and DOWFAX 8390, respectively. RD3 and RD4 signify the cationic surfactants of Example 2A branded AO-8 Macat and AO-12 Macat.
A spore suspension was generated and counted in accordance with Example 4:
Ribotype 25; 8.0×10^9 spores/mL (8.0×10^8 spores on the glass surface) approximately 80% spores in the suspension.
as §1, with “for” for “for an”, “times between 1 and 10” for “time of 2”

[4] = system: C difficile spores PCR Ribotype 023; assay: Elimination of spores of Clostridium difficile on surfaces (Example 4; glass, brass, copper); type: cell-based; conditions: 10 minutes exposure; for Culture 6 PY-broth undiluted / Culture 7 PY-broth 10^−2 / Culture 8 PY-broth 10^−4 / Culture 9 PY-broth 10^−6: cotton tip smear of surface; for total amount of CFUs in the flasks (within brackets): surviving spores displaced from the surface; for amount of CFU in the undiluted PY-broth (within brackets): surviving spores remaining attached to the surface
Excerpt: C difficile spores PCR Ribotype 023 (ECDC/Cardiff nomenclature) were transferred from a frozen sample to plates with Fastidious Anaerobe Agar (FAAAP), cultured under anaerobe conditions for 2 days. The cultures were transferred to ambient conditions and colonies of C difficile were admitted to sporulate. The spores were harvested and dissolved in sterile water (reverse osmosis (RO)), subjected to alcohol shock (70%), washed, centrifugated and collected as a suspension of spores.
In the preparation 0.1 ml of the spore suspension was transferred to microscopy slides, sterile plates of brass or copper. When the spore suspensions have dried, 0.2 ml of the following solutions were added:
After 10 minutes exposure to the solutions, the Glasses and the plates were each transferred to a 500 ml Glass flask to dilute and interrupt disinfection. The flasks were rotated at 200 rpm for 20 minutes.
From each of the rotated flasks 0.1 ml was transferred to agar plates (Culture 1). The samples were diluted in two steps 1/10 in tubes. From each tube, 0.1 ml was transferred to agar plates (Cultures 2 and 3).
The solutions in the flasks were filtered and rinsed with 3×100 ml buffered peptone water (PENAL). The filtrations were performed in two steps. At first, 1 ml was filtered, then remaining volume of solution in the flasks (approx. 249 ml). The filters were cultured on agar plates (Cultures 4 and 5).
At two times, 40 ml samples were taken from the filtrates. These were centrifugated and the supernatant was discarded, the pellet re-suspended in 0.1 ml 0.85% NaCl solution. The entire volume was transferred to agar plates.
In order to assess if viable spore remain on the surfaces of Glasses and the, they were smeared with moist cotton tip (all smeared in accordance with a “double-S” shape). The tip was cultured in 2 ml pre-reduced PY-broth which was diluted 1/10 in several repeated steps and cultured on agar plates (0.2 ml/plate), (Cultures 6 to 9)
All culture plates were cultured under anaerobe conditions at 36° C. for 2 days.

[5] = spores survived not detached from the surface
[6] = surviving spores detached from the surface
[7] = 8.0×10^8 spores on the glass surface

For `CCO` [70% Ethanol, Ethanol], the “Number cfu × 100 × 250 0.1 mL Diluted 10^−2” value ([1]; head lines shifted, by Table 4 layout: 0.1 mL Diluted 10^−1) was “overgrown”, the “Number cfu × 1000 × 250 PY-broth Undiluted” value ([1]; head lines shifted, by Table 4 layout: 0.1 mL Diluted 10^−2) was 81 cfu and the “Number cfu × 10 × 250 0.1 mL Diluted 10^−1” value ([1]; head lines shifted, by Table 4 layout: 0.1 mL From bottle) was “overgrown”. For the same compound, the “Number cfu × 250 0.1 mL From bottle” value ([1]; head lines shifted, by Table 4 layout: Filtration 1 mL) was “overgrown”, the “Number cfu Filtration 1 mL” value ([1]; head lines shifted, by Table 4 layout: Filtration 249 mL) was “overgrown” and the “Number cfu × 10^3 PY-broth Diluted 10^−4” value ([1]; head lines shifted, by Table 4 layout: PY-broth Diluted 10^−2) was “overgrown”. For the same compound, the “Number cfu × 10^5 Filtration 249 mL” value ([1]; head lines shifted, by Table 4 layout: PY-broth Diluted 10^−4) was 28 cfu, the “Number cfu × 10 PY-broth Diluted 10^−2” value ([1]; head lines shifted, by Table 4 layout: PY-broth Undiluted) was “overgrown” and the “number of CFUs in the undiluted PY-broth (brackets)” value [1, 5] was “(2.8 × 10^6) CFUs”. For the same compound, the “number of CFUs in the flask (brackets)” value [1, 6] was “(2.0 × 10^7) CFUs”, the “Number cfu Filtration 249 mL” value [2] was “overgrown” and the “Number cfu × 10 PY-broth Undiluted” value [2] was “overgrown”. For the same compound, the “Number cfu × 10^3 PY-broth Diluted 10^−2” value [2] was “overgrown”, the “Number cfu × 10^5 PY-broth Diluted 10^−4” value [2] was 67 cfu and the “Number cfu × 10 × 250 0.1 mL From bottle” value [2] was “overgrown”. The “Number cfu × 100 × 250 0.1 mL Diluted 10^−1” value [2] was “overgrown”, the “Number cfu × 250 Filtration 1 mL” value [2] was “overgrown” and the “Number cfu × 1000 × 250 0.1 mL Diluted 10^−2” value [2] was 103 cfu. The “number of CFUs in the undiluted PY-broth (brackets)” value [2, 5] was “(6.7 × 10^6) CFUs”, the “number of CFUs in the flask (brackets)” value [2, 6] was “(2.6 × 10^7) CFUs” and the “0.1 mL Diluted 10^−1” value [3, 7] was “overgrown”. For the same compound, the “0.1 mL Diluted 10^−2” value [3, 7] was 240 CFUs, the “0.1 mL From bottle” value [3, 7] was “overgrown” and the “Filtration 1 mL” value [3, 7] was “overgrown”. For the same compound, the “PY-broth Diluted 10^−2” value [3, 7] was “overgrown”, the “PY-broth Diluted 10^−4” value [3, 7] was 86 CFUs and the “PY-broth Undiluted” value [3, 7] was “overgrown”. For the same compound, the “number of CFUs in the undiluted PY-broth (brackets)” value [3, 5] was “(8.6 × 10^6) CFUs”, the “number of CFUs in the flask (brackets)” value [3, 6] was “(6.0 × 10^7) CFUs” and the “Culture 1 0.1 mL From bottle” value ([4]; Brass) was “overgrown”. The “Culture 2 Dilution 10^−1” value ([4]; Brass) was 55 CFU, the “Culture 3 Dilution 10^−2” value ([4]; Brass) was 5 CFU and the “Culture 4 Filtration 1 mL” value ([4]; Brass) was “overgrown”. The “Culture 5 Filtration 249 mL” value ([4]; Brass) was “overgrown”, the “Culture 6 PY-broth undiluted” value ([4]; Brass) was “overgrown” and the “Culture 7 PY-broth 10^−2” value ([4]; Brass) was “overgrown”. The “Culture 8 PY-broth 10^−4” value ([4]; Brass) was 74 CFU, the “Culture 9 PY-broth 10^−6” value ([4]; Brass) was 0 CFU and the “total amount of CFUs in the flasks (within brackets)” value (“total amount of CFUs in the flasks” below) ([4]; Brass) was “(1.4 × 10^6) CFU”. For the same compound, the “amount of CFU in the undiluted PY-broth (within brackets)” value (from here on “amount of CFU in the undiluted PY-broth”) ([4]; Brass) was “(7.4 × 10^6) CFU”, the “Culture 1 0.1 mL From bottle” value ([4]; Copper) was 429 CFU and the “Culture 2 Dilution 10^−1” value ([4]; Copper) was 40 CFU. The “Culture 3 Dilution 10^−2” value ([4]; Copper) was 1 CFU, the “Culture 4 Filtration 1 mL” value ([4]; Copper) was “overgrown” and the “Culture 5 Filtration 249 mL” value ([4]; Copper) was “overgrown”. For the same compound, the “Culture 6 PY-broth undiluted” value ([4]; Copper) was “overgrown”, the “Culture 7 PY-broth 10^−2” value ([4]; Copper) was “overgrown” and the “Culture 8 PY-broth 10^−4” value ([4]; Copper) was 79 CFU. The “Culture 9 PY-broth 10^−6” value ([4]; Copper) was 0 CFU, the “total amount of CFUs in the flasks” value ([4]; Copper) was “(1.0 × 10^6) CFU” and the “amount of CFU in the undiluted PY-broth” value ([4]; Copper) was “(7.9 × 10^6) CFU”. The “Culture 1 0.1 mL From bottle” value ([4]; Glass) was “overgrown”, the “Culture 2 Dilution 10^−1” value ([4]; Glass) was 517 CFU and the “Culture 3 Dilution 10^−2” value ([4]; Glass) was 46 CFU. The “Culture 4 Filtration 1 mL” value ([4]; Glass) was “overgrown”, the “Culture 5 Filtration 249 mL” value ([4]; Glass) was “overgrown” and the “Culture 6 PY-broth undiluted” value ([4]; Glass) was “overgrown”. For the same compound, the “Culture 7 PY-broth 10^−2” value ([4]; Glass) was “overgrown”, the “Culture 8 PY-broth 10^−4” value ([4]; Glass) was 39 CFU and the “Culture 9 PY-broth 10^−6” value ([4]; Glass) was 1 CFU. For the same compound, the “total amount of CFUs in the flasks” value ([4]; Glass) was “(1.2 × 10^7) CFU” and the “amount of CFU in the undiluted PY-broth” value ([4]; Glass) was “(3.9 × 10^6) CFU”.
